Data published in patent US12539312B2, “Use of materials made of cross-linked β-cyclodextrins for the treatment of tuberculosis” (INSERM (INSTITUT NATIONAL DE LA SANTÉ ET DE LA RECHERCHE …, priority 2019, dated 2026).

Assays:
[1] = system: Mtb H37Rv; assay: Lung mycobacterial load in Mtb-challenged mice (CFU counting); format: in vivo, Mycobacterium tuberculosis; conditions: Booster co-loaded with ETH in pβCD
[2] = system: BMDM; assay: Apoptosis/necrosis assay (Annexin V and DNA intercalating dye); format: cell-based, murine; conditions: 24 hours incubation
[3] = Phase solubility study, ETH; conditions: 1:1 stoichiometry assumed, from phase solubility diagram
[4] = Phase solubility study, Booster; conditions: 1:1 stoichiometry assumed; BDM43266 per FIG. 2B

Row | Compound | boosting efficacy on ETH [1] | Annexin V / DNA intercalating dye staining [2] | K1:1 (binding constant) in the case of ETH [3] | K1:1 (binding constant) in the case of Booster [4]
1 | O=C(CCCC(F)(F)F)N1CCC(c2nc(-c3nccs3)no2)CC1 [BDM41906] | No difference was observed concerning the boosting efficacy between BDM41906 and BDM43266 | – | – | –
2 | CN[C@@H]1C[C@H]2O[C@@](C)([C@@H]1OC)n1c3ccccc3c3c4c(c5c6ccccc6n2c5c31)C(=O)NC4 [staurosporine] | – | late apoptotic, double positive cells | – | –
3 | OC[C@H]1O[C@@H]2O[C@H]3[C@H](O)[C@@H](O)[C@@H](O[C@H]4[C@H](O)[C@@H](O)[C@@H](O[C@H]5[C@H](O)[C@@H](O)[C@@H](O[C@H]6[C@H](O)[C@@H](O)[C@@H](O[C@H]7[C@H](O)[C@@H](O)[C@@H](O[C@H]1[C@H](O)[C@H]2O)O[C@@H]7CO)O[C@@H]6CO)O[C@@H]5CO)O[C@@H]4CO)O[C@@H]3CO [αCD, α-cyclodextrin] | – | – | 24 | 100
4 | OC[C@H]1O[C@@H]2O[C@H]3[C@H](O)[C@@H](O)[C@@H](O[C@H]4[C@H](O)[C@@H](O)[C@@H](O[C@H]5[C@H](O)[C@@H](O)[C@@H](O[C@H]6[C@H](O)[C@@H](O)[C@@H](O[C@H]7[C@H](O)[C@@H](O)[C@@H](O[C@H]8[C@H](O)[C@@H](O)[C@@H](O[C@H]1[C@H](O)[C@H]2O)O[C@@H]8CO)O[C@@H]7CO)O[C@@H]6CO)O[C@@H]5CO)O[C@@H]4CO)O[C@@H]3CO [βCD, β-Cyclodextrin] | – | – | 100 | 514
5 | OC[C@H]1O[C@@H]2O[C@H]3[C@H](O)[C@@H](O)[C@@H](O[C@H]4[C@H](O)[C@@H](O)[C@@H](O[C@H]5[C@H](O)[C@@H](O)[C@@H](O[C@H]6[C@H](O)[C@@H](O)[C@@H](O[C@H]7[C@H](O)[C@@H](O)[C@@H](O[C@H]8[C@H](O)[C@@H](O)[C@@H](O[C@H]9[C@H](O)[C@@H](O)[C@@H](O[C@H]1[C@H](O)[C@H]2O)O[C@@H]9CO)O[C@@H]8CO)O[C@@H]7CO)O[C@@H]6CO)O[C@@H]5CO)O[C@@H]4CO)O[C@@H]3CO [γCD, γ-cyclodextrin] | – | – | 47 | 256
